Measurements: patent publication EP1542016A1, “PUMA, phosphorylated p53 and p38 map kinase as markers for HIV-1-induced apoptosis in circulating T cells of infected patient” (Institut Gustave Roussy, priority 2003, dated 2005)

Legend:
[1] = test system: p53; test: Phosphorylation of p53 (p53S46P, p53S15P) in Env-elicited syncytia; format: cell-based; conditions: 36 h coculture, SB203580, SB202190, SB202474 100 nM, LY294002 1 µM, PD98059 5 µM, anti-sense HIPK2 100 nM, Fig. 10
Method: Figures 10A and 10C. […] HeLa Env and HeLa CD4 cells were cocultured for 36h in the presence of the indicated agents followed by the determination of the frequency of p53S46P+ syncytia. Results are means of three independent experiments.
Figure 10B. […] Syncytia were generated as in figure 10A, after transfection with anti-sense HIPK2 phosphorothioate oligonucleotides (100 nM) or a scrambled control olignonucleotide (Co.), followed by immunofluorescence detection of p53S46P.
(§1) Transfection with pcDNA3.1 vector only, or p38 DN plasmids (gift by Roger Davis), or HPLC-purified anti-sense HIPK2 phosphorothioate oligonucleotides (100 nM) and control were transfected with Lipofectamine (Invitrogen) into HeLa CD4 cells, 24 h before co-culture with HeLa Env cells. Transfection with pcDNA3.1 vector only or a p53-responsive enhanced green fluorescent (GFP) plasmid (kind gift from Klas Wiman) was performed 24 hours before coculture of HeLa CD4 and HeLa Env cells. The frequency of GFP-expressing cells was assessed by cytofluorometry, on a FACS Vantage (Becton Dickinson) equipped with a 100 µm nozzle, allowing for the analysis of relatively large cells.

[2] = test system: Env-elicited syncytia; format: cell-based
Method: (§2) HeLa/U937 cell co-cultures were performed at different ratios (6). U937 or Jurkat cells were cultured with recombinant gp120 protein (500 ng/ml).

[3] = test system: p53; format: cell-based; conditions: syncytia, 24 hours; SN50 20 µM, roscovitin 1 µM; Fig. 3B
Method: The frequency of GFP-expressing cells was assessed by cytofluorometry, on a FACS Vantage (Becton Dickinson) equipped with a 100 µm nozzle, allowing for the analysis of relatively large cells.
as §1

[4] = test system: Env-induced syncytia; conditions: reference (5); cited from earlier work
[5] = test system: Env-elicited syncytia; test: Karyogamy and cyclin B accumulation in Env-elicited syncytia; format: cell-based; conditions: SN50 20 µM, roscovitin 1 µM; Fig. 3D
Method: Figure 3D. […] Syncytia were treated with various drugs as in B, and the frequency of karyogamic cells was scored.
as §2

## COc1cccc(-c2cc(=O)c3ccccc3o2)c1N [PD98059]
[1]; 500 mM caffeine
  frequency of p53S46P+ syncytia (p53S46P): failed to affect

## Oc1ccc(-c2nc(-c3ccc(F)cc3)c(-c3ccncc3)[nH]2)cc1 [SB202190]
[1]; 500 mM caffeine
  frequency of p53S46P+ syncytia (p53S46P): strongly reduced

## CCc1nc(-c2ccc(OC)cc2)[nH]c1-c1ccncc1 [SB202474]
[1]; 500 mM caffeine
  frequency of p53S46P+ syncytia (p53S46P): not

## Cn1c(=O)c2c(ncn2C)n(C)c1=O [caffeine]
[1]; caffeine
  frequency of p53S46P+ syncytia (p53S46P): no effect
[2]
  propensity of syncytia to undergo apoptosis: did not reduce

## CC[C@H](CO)Nc1nc(NCc2ccccc2)c2ncn(C(C)C)c2n1 [roscovitine]
[3]
  p53-dependent transcription (p53-inducible GFP construct): inhibited
[4]
  syncytium-dependent cell death: blocked
[5]
  emergence of karyogamic syncytia (karyogamy): inhibiting
